Conditions: Vibrating tube method; for mass density: Liquid; for specific volume: Gas

F/C=C\C(F)(F)F [(Z)-1,3,3,3-tetrafluoro-1-propene]
Conditions | mass density [kg/m3] | specific volume [m3/kg]
283.15 K, 19923 kPa | 1312.8 | –
283.15 K, 30988 kPa | 1335.2 | –
283.16 K, 188 kPa | 1262.2 | –
283.16 K, 714 kPa | 1263.9 | –
283.16 K, 1728 kPa | 1266.9 | –
283.16 K, 2742 kPa | 1270 | –
283.16 K, 3759 kPa | 1273 | –
283.16 K, 4785 kPa | 1275.9 | –
283.16 K, 5794 kPa | 1278.6 | –
283.16 K, 6808 kPa | 1281.4 | –
283.16 K, 7810 kPa | 1284.1 | –
283.16 K, 8829 kPa | 1286.8 | –
283.16 K, 9831 kPa | 1289.3 | –
283.16 K, 10842 kPa | 1291.8 | –
283.16 K, 11848 kPa | 1294.3 | –
283.16 K, 12862 kPa | 1296.7 | –
283.16 K, 13869 kPa | 1299.3 | –
283.16 K, 14880 kPa | 1301.5 | –
283.16 K, 15887 kPa | 1304 | –
283.16 K, 16901 kPa | 1306.2 | –
283.16 K, 17911 kPa | 1308.5 | –
283.16 K, 18920 kPa | 1310.8 | –
283.16 K, 20928 kPa | 1315.1 | –
283.16 K, 21929 kPa | 1317.3 | –
283.16 K, 22938 kPa | 1319.3 | –
283.16 K, 23940 kPa | 1321.4 | –
283.16 K, 24945 kPa | 1323.4 | –
283.16 K, 25950 kPa | 1325.4 | –
283.16 K, 26964 kPa | 1327.4 | –
283.16 K, 27969 kPa | 1329.6 | –
283.16 K, 28981 kPa | 1331.5 | –
283.16 K, 29981 kPa | 1333.4 | –
283.16 K, 32001 kPa | 1337.1 | –
283.16 K, 33010 kPa | 1339 | –
283.16 K, 34026 kPa | 1340.8 | –
293.14 K, 707 kPa | 1238 | –
293.14 K, 3747 kPa | 1248.2 | –
293.14 K, 6783 kPa | 1257.5 | –
293.14 K, 8789 kPa | 1263.5 | –
293.14 K, 21891 kPa | 1296.5 | –
293.14 K, 22907 kPa | 1298.7 | –
293.14 K, 23918 kPa | 1301 | –
293.14 K, 24927 kPa | 1303.2 | –
293.14 K, 31982 kPa | 1317.6 | –
293.15 K, 202 kPa | 1236.1 | –
293.15 K, 1711 kPa | 1241.3 | –
293.15 K, 2717 kPa | 1244.8 | –
293.15 K, 4772 kPa | 1251.4 | –
293.15 K, 5777 kPa | 1254.5 | –
293.15 K, 7789 kPa | 1260.4 | –
293.15 K, 9806 kPa | 1266.1 | –
293.15 K, 10808 kPa | 1269.1 | –
293.15 K, 11817 kPa | 1271.7 | –
293.15 K, 12827 kPa | 1274.3 | –
293.15 K, 13836 kPa | 1277 | –
293.15 K, 14850 kPa | 1279.6 | –
293.15 K, 15856 kPa | 1282.1 | –
293.15 K, 16856 kPa | 1284.7 | –
293.15 K, 17859 kPa | 1287 | –
293.15 K, 18869 kPa | 1289.6 | –
293.15 K, 19873 kPa | 1292 | –
293.15 K, 20882 kPa | 1294.3 | –
293.15 K, 25932 kPa | 1305.2 | –
293.15 K, 26941 kPa | 1307.2 | –
293.15 K, 27957 kPa | 1309.7 | –
293.15 K, 28963 kPa | 1311.6 | –
293.15 K, 29972 kPa | 1313.7 | –
293.15 K, 30977 kPa | 1315.7 | –
293.15 K, 32993 kPa | 1319.5 | –
293.15 K, 33996 kPa | 1321.6 | –
303.15 K, 82.1 kPa | – | 0.259
303.15 K, 113.7 kPa | – | 0.185
303.15 K, 184.2 kPa | – | 0.111
303.15 K, 190.7 kPa | – | 0.107
303.15 K, 1705 kPa | 1215.3 | –
303.15 K, 3735 kPa | 1222.8 | –
303.15 K, 4759 kPa | 1226.3 | –
303.15 K, 7774 kPa | 1236.5 | –
303.15 K, 8779 kPa | 1239.7 | –
303.15 K, 10782 kPa | 1245.9 | –
303.15 K, 12803 kPa | 1251.9 | –
303.15 K, 13813 kPa | 1254.8 | –
303.15 K, 14822 kPa | 1257.6 | –
303.15 K, 15833 kPa | 1260.3 | –
303.15 K, 16844 kPa | 1263 | –
303.15 K, 17858 kPa | 1265.7 | –
303.15 K, 18870 kPa | 1268.3 | –
303.15 K, 19882 kPa | 1270.9 | –
303.15 K, 20888 kPa | 1273.4 | –
303.15 K, 21903 kPa | 1275.9 | –
303.15 K, 22911 kPa | 1278.3 | –
303.15 K, 23920 kPa | 1280.7 | –
303.15 K, 24935 kPa | 1283 | –
303.15 K, 25951 kPa | 1285.4 | –
303.15 K, 26951 kPa | 1287.7 | –
303.15 K, 27967 kPa | 1289.9 | –
303.15 K, 28968 kPa | 1292.1 | –
303.15 K, 29985 kPa | 1294.3 | –
303.15 K, 30991 kPa | 1296.4 | –
303.15 K, 31993 kPa | 1298.6 | –
303.15 K, 32995 kPa | 1300.6 | –
303.15 K, 34000 kPa | 1302.7 | –
303.16 K, 217 kPa | 1209.4 | –
303.16 K, 692 kPa | 1211.4 | –
303.16 K, 2712 kPa | 1219.1 | –
303.16 K, 5769 kPa | 1229.9 | –
303.16 K, 6772 kPa | 1233.2 | –
303.16 K, 9780 kPa | 1242.9 | –
303.16 K, 11794 kPa | 1249 | –
308.15 K, 83.4 kPa | – | 0.259
308.15 K, 115.8 kPa | – | 0.185
308.15 K, 187.8 kPa | – | 0.111
308.15 K, 194.6 kPa | – | 0.107
308.15 K, 215.4 kPa | – | 0.095
313.15 K, 84.9 kPa | – | 0.259
313.15 K, 117.9 kPa | – | 0.185
313.15 K, 191.5 kPa | – | 0.111
313.15 K, 198.5 kPa | – | 0.107
313.15 K, 325 kPa | 1182 | –
313.15 K, 777 kPa | 1184 | –
313.15 K, 1789 kPa | 1188.5 | –
313.15 K, 2791 kPa | 1192.7 | –
313.15 K, 3819 kPa | 1196.9 | –
313.15 K, 4846 kPa | 1201.1 | –
313.15 K, 5847 kPa | 1204.9 | –
313.15 K, 6862 kPa | 1208.7 | –
313.15 K, 7865 kPa | 1212.3 | –
313.15 K, 8867 kPa | 1215.8 | –
313.15 K, 9876 kPa | 1219.3 | –
313.15 K, 10884 kPa | 1222.7 | –
313.15 K, 11896 kPa | 1226 | –
313.15 K, 12909 kPa | 1229.2 | –
313.15 K, 13913 kPa | 1232.4 | –
313.15 K, 14924 kPa | 1235.4 | –
313.15 K, 15924 kPa | 1238.4 | –
313.15 K, 16925 kPa | 1241.4 | –
313.15 K, 17931 kPa | 1244.2 | –
313.15 K, 18933 kPa | 1247 | –
313.15 K, 19934 kPa | 1249.8 | –
313.15 K, 20940 kPa | 1252.5 | –
313.15 K, 21945 kPa | 1255.1 | –
313.15 K, 22953 kPa | 1257.8 | –
313.15 K, 23961 kPa | 1260.4 | –
313.15 K, 24962 kPa | 1262.9 | –
313.15 K, 25963 kPa | 1265.3 | –
313.15 K, 26966 kPa | 1267.7 | –
313.15 K, 27968 kPa | 1270.1 | –
313.15 K, 28969 kPa | 1272.5 | –
313.15 K, 29976 kPa | 1274.8 | –
313.15 K, 30978 kPa | 1277 | –
313.15 K, 31986 kPa | 1279.3 | –
313.15 K, 32992 kPa | 1281.6 | –
313.15 K, 34000 kPa | 1283.8 | –
313.16 K, 219.8 kPa | – | 0.095
315.15 K, 270.7 kPa | – | 0.076
318.15 K, 86.3 kPa | – | 0.26
318.15 K, 120 kPa | – | 0.185
318.15 K, 195.2 kPa | – | 0.111
318.15 K, 202.2 kPa | – | 0.107
318.15 K, 224 kPa | – | 0.095
320.15 K, 276.3 kPa | – | 0.076
323.14 K, 4763 kPa | 1174.1 | –
323.14 K, 16843 kPa | 1218.6 | –
323.14 K, 21889 kPa | 1233.7 | –
323.14 K, 29946 kPa | 1254.9 | –
323.14 K, 30956 kPa | 1257.3 | –
323.15 K, 87.8 kPa | – | 0.26
323.15 K, 122.1 kPa | – | 0.185
323.15 K, 198.9 kPa | – | 0.111
323.15 K, 206 kPa | – | 0.107
323.15 K, 228.3 kPa | – | 0.095
323.15 K, 363.2 kPa | – | 0.057
323.15 K, 392 kPa | 1153.1 | –
323.15 K, 686 kPa | 1154.6 | –
323.15 K, 1702 kPa | 1159.8 | –
323.15 K, 2712 kPa | 1164.7 | –
323.15 K, 3731 kPa | 1169.5 | –
323.15 K, 5778 kPa | 1178.4 | –
323.15 K, 6786 kPa | 1182.7 | –
323.15 K, 7786 kPa | 1186.7 | –
323.15 K, 8786 kPa | 1190.6 | –
323.15 K, 9791 kPa | 1194.4 | –
323.15 K, 10796 kPa | 1198.2 | –
323.15 K, 11803 kPa | 1201.8 | –
323.15 K, 12805 kPa | 1205.3 | –
323.15 K, 13812 kPa | 1208.8 | –
323.15 K, 14822 kPa | 1212.1 | –
323.15 K, 15831 kPa | 1215.4 | –
323.15 K, 17849 kPa | 1221.7 | –
323.15 K, 18857 kPa | 1224.9 | –
323.15 K, 19866 kPa | 1227.9 | –
323.15 K, 20875 kPa | 1230.8 | –
323.15 K, 22900 kPa | 1236.5 | –
323.15 K, 23908 kPa | 1239.3 | –
323.15 K, 24908 kPa | 1242 | –
323.15 K, 25914 kPa | 1244.6 | –
323.15 K, 26926 kPa | 1247.3 | –
323.15 K, 27933 kPa | 1249.8 | –
323.15 K, 28945 kPa | 1252.4 | –
323.15 K, 31966 kPa | 1259.8 | –
323.15 K, 32979 kPa | 1262.2 | –
323.15 K, 33992 kPa | 1264.5 | –
325.15 K, 281.9 kPa | – | 0.076
328.15 K, 89.2 kPa | – | 0.26
328.15 K, 124.1 kPa | – | 0.185
